The test system of the assay is recombinant NL-Rluc virus. Nature of the assay: Inhibition of HIV replication (NL-Rluc virus, luciferase readout in MT-2 cells). It counts as cell-based. The following applies: Human immunodeficiency virus 1, MT2, 120 h.

Each structure is given as a SMILES string. Like-named read-outs stand apart in the source and are kept apart here.

Consider `Cc1nc2cc(NC(=O)C(Oc3ccccc3)C(C)C)nn2c(-c2cc(F)c3c(c2C)CCCO3)c1[C@H](OC(C)(C)C)C(=O)O` (mixture of isomers) [Example 24, (2S)-2-tert-butoxy-2-(7-(8-fluoro-5-methylchroman-6-yl)-5-methyl-2-(3-methyl-2-phenoxybutanamido)pyrazolo[1,5-a]pyrimidin-6-yl)acetic acid], for which the EC50 (read-out: Activity) is below 100 nM.

Consider `Cc1nc2cc(N)nn2c(-c2cc(F)c3c(c2C)CCCO3)c1[C@H](OC(C)(C)C)C(=O)O` [Example 1, (2S)-2-(2-amino-7-(8-fluoro-5-methylchroman-6-yl)-5-methylpyrazolo[1,5-a]pyrimidin-6-yl)-2-tert-butoxyacetic acid], for which the EC50 was found to be 2480 nM. Moreover, the EC50 (read-out: Activity) was above 1000 nM.

On to `Cc1nc2cc(NC(=O)CCC3CCCC3)nn2c(-c2cc(F)c3c(c2C)CCCO3)c1[C@H](OC(C)(C)C)C(=O)O` [Example 2, (2S)-2-tert-butoxy-2-(2-(3-cyclopentylpropanamido)-7-(8-fluoro-5-methylchroman-6-yl)-5-methylpyrazolo[1,5-a]pyrimidin-6-yl)acetic acid], for which, where the note is “read-out: Activity”, the EC50 was below 100 nM.

With `Cc1nc2cc(NC(=O)Cc3ccc(F)cc3)nn2c(-c2cc(F)c3c(c2C)CCCO3)c1[C@H](OC(C)(C)C)C(=O)O` [Example 3, (2S)-2-tert-butoxy-2-(7-(8-fluoro-5-methylchroman-6-yl)-2-(2-(4-fluorophenyl)acetamido)-5-methylpyrazolo[1,5-a]pyrimidin-6-yl)acetic acid], the EC50 is 80 nM. For the same molecule, the EC50 (read-out: Activity) was below 100 nM.

For `Cc1nc2cc(NC(=O)Cc3ccccc3)nn2c(-c2cc(F)c3c(c2C)CCCO3)c1[C@H](OC(C)(C)C)C(=O)O` [Example 4, (2S)-2-tert-butoxy-2-(7-(8-fluoro-5-methylchroman-6-yl)-5-methyl-2-(2-phenylacetamido)pyrazolo[1,5-a]pyrimidin-6-yl)acetic acid], the EC50 was 120 nM. In addition, the EC50 (read-out: Activity) was 100 to 1000 nM.

For `Cc1nc2cc(NC(=O)c3cccc(F)c3)nn2c(-c2cc(F)c3c(c2C)CCCO3)c1[C@H](OC(C)(C)C)C(=O)O` [Example 5, (2S)-2-tert-butoxy-2-(7-(8-fluoro-5-methylchroman-6-yl)-2-(3-fluorobenzamido)-5-methylpyrazolo[1,5-a]pyrimidin-6-yl)acetic acid], the EC50 (read-out: Activity) is below 100 nM.

On to `COc1cccc(C(=O)Nc2cc3nc(C)c([C@H](OC(C)(C)C)C(=O)O)c(-c4cc(F)c5c(c4C)CCCO5)n3n2)c1` [Example 6, (2S)-2-tert-butoxy-2-(7-(8-fluoro-5-methylchroman-6-yl)-2-(3-methoxybenzamido)-5-methylpyrazolo[1,5-a]pyrimidin-6-yl)acetic acid], for which the EC50 (read-out: Activity) was below 100 nM.

As for `Cc1nc2cc(NC(=O)c3cccc(OCc4ccccc4)c3)nn2c(-c2cc(F)c3c(c2C)CCCO3)c1[C@H](OC(C)(C)C)C(=O)O` [Example 7, (2S)-2-(2-(3-(benzyloxy)benzamido)-7-(8-fluoro-5-methylchroman-6-yl)-5-methylpyrazolo[1,5-a]pyrimidin-6-yl)-2-tert-butoxyacetic acid], where the note is “read-out: Activity”, the EC50 is below 100 nM.

Turning to `Cc1nc2cc(NC(=O)c3cccc(C#N)c3)nn2c(-c2cc(F)c3c(c2C)CCCO3)c1[C@H](OC(C)(C)C)C(=O)O` [Example 8, (2S)-2-tert-butoxy-2-(2-(3-cyanobenzamido)-7-(8-fluoro-5-methylchroman-6-yl)-5-methylpyrazolo[1,5-a]pyrimidin-6-yl)acetic acid], under “read-out: Activity”, the EC50 was 100 to 1000 nM.

On to `Cc1nc2cc(NC(=O)COCc3ccccc3)nn2c(-c2cc(F)c3c(c2C)CCCO3)c1[C@H](OC(C)(C)C)C(=O)O` [Example 9, (2S)-2-(2-(2-(benzyloxy)acetamido)-7-(8-fluoro-5-methylchroman-6-yl)-5-methylpyrazolo[1,5-a]pyrimidin-6-yl)-2-tert-butoxyacetic acid], for which the EC50 (read-out: Activity) was below 100 nM.

In the case of `Cc1ccc(C(=O)Nc2cc3nc(C)c([C@H](OC(C)(C)C)C(=O)O)c(-c4cc(F)c5c(c4C)CCCO5)n3n2)cc1C` [Example 10, (2S)-2-tert-butoxy-2-(2-(3,4-dimethylbenzamido)-7-(8-fluoro-5-methylchroman-6-yl)-5-methylpyrazolo[1,5-a]pyrimidin-6-yl)acetic acid], the EC50 (read-out: Activity) is below 100 nM.

For the molecule `Cc1nc2cc(NC(=O)c3cc(C(C)(C)C)nn3C)nn2c(-c2cc(F)c3c(c2C)CCCO3)c1[C@H](OC(C)(C)C)C(=O)O` [Example 11, (2S)-2-tert-butoxy-2-(2-(3-tert-butyl-1-methyl-1H-pyrazole-5-carboxamido)-7-(8-fluoro-5-methylchroman-6-yl)-5-methylpyrazolo[1,5-a]pyrimidin-6-yl)acetic acid], under “read-out: Activity”, the EC50 was below 100 nM.

As to `Cc1nc2cc(NC(=O)CCCc3ccccc3)nn2c(-c2cc(F)c3c(c2C)CCCO3)c1[C@H](OC(C)(C)C)C(=O)O` [Example 12, (2S)-2-tert-butoxy-2-(7-(8-fluoro-5-methylchroman-6-yl)-5-methyl-2-(4-phenylbutanamido)pyrazolo[1,5-a]pyrimidin-6-yl)acetic acid], the EC50 was found to be 50 nM. Further, the EC50 (read-out: Activity) was below 100 nM.

`Cc1nc2cc(NC(=O)COC3C[C@@H](C)CC[C@@H]3C(C)C)nn2c(-c2cc(F)c3c(c2C)CCCO3)c1[C@H](OC(C)(C)C)C(=O)O` (stereo partly drawn) [Example 13, (2S)-2-tert-butoxy-2-(7-(8-fluoro-5-methylchroman-6-yl)-2-(2-((2R,5S)-2-isopropyl-5-methylcyclohexyloxy)acetamido)-5-methylpyrazolo[1,5-a]pyrimidin-6-yl)acetic acid]: the EC50 (read-out: Activity) is below 100 nM.

On to `CCOc1cccc(C(=O)Nc2cc3nc(C)c([C@H](OC(C)(C)C)C(=O)O)c(-c4cc(F)c5c(c4C)CCCO5)n3n2)c1` [Example 14, (2S)-2-tert-butoxy-2-(2-(3-ethoxybenzamido)-7-(8-fluoro-5-methylchroman-6-yl)-5-methylpyrazolo[1,5-a]pyrimidin-6-yl)acetic acid], for which the EC50 (read-out: Activity) is below 100 nM.

As to `COc1ccc(C(=O)Nc2cc3nc(C)c([C@H](OC(C)(C)C)C(=O)O)c(-c4cc(F)c5c(c4C)CCCO5)n3n2)cc1OC` [Example 15, (2S)-2-tert-butoxy-2-(2-(3,4-dimethoxybenzamido)-7-(8-fluoro-5-methylchroman-6-yl)-5-methylpyrazolo[1,5-a]pyrimidin-6-yl)acetic acid], the EC50 was determined as 260 nM. Moreover, the EC50 (read-out: Activity) lay within 100 to 1000 nM.

Turning to `Cc1nc2cc(NC(=O)CCc3ccccc3)nn2c(-c2cc(F)c3c(c2C)CCCO3)c1[C@H](OC(C)(C)C)C(=O)O` [Example 16, (2S)-2-tert-butoxy-2-(7-(8-fluoro-5-methylchroman-6-yl)-5-methyl-2-(3-phenylpropanamido)pyrazolo[1,5-a]pyrimidin-6-yl)acetic acid], the EC50 (read-out: Activity) was 100 to 1000 nM.

For `CCCCCC(=O)Nc1cc2nc(C)c([C@H](OC(C)(C)C)C(=O)O)c(-c3cc(F)c4c(c3C)CCCO4)n2n1` [Example 17, (2S)-2-tert-butoxy-2-(7-(8-fluoro-5-methylchroman-6-yl)-2-hexanamido-5-methylpyrazolo[1,5-a]pyrimidin-6-yl)acetic acid], under “read-out: Activity”, the EC50 is below 100 nM.

With `Cc1nc2cc(NC(=O)c3ccc4c(c3)-c3ccccc3C4=O)nn2c(-c2cc(F)c3c(c2C)CCCO3)c1[C@H](OC(C)(C)C)C(=O)O` [Example 18, (2S)-2-tert-butoxy-2-(7-(8-fluoro-5-methylchroman-6-yl)-5-methyl-2-(9-oxo-9H-fluorene-3-carboxamido)pyrazolo[1,5-a]pyrimidin-6-yl)acetic acid], the EC50 (read-out: Activity) was 100 to 1000 nM.

As for `CCOc1ccccc1C(=O)Nc1cc2nc(C)c([C@H](OC(C)(C)C)C(=O)O)c(-c3cc(F)c4c(c3C)CCCO4)n2n1` [Example 19, (2S)-2-tert-butoxy-2-(2-(2-ethoxybenzamido)-7-(8-fluoro-5-methylchroman-6-yl)-5-methylpyrazolo[1,5-a]pyrimidin-6-yl)acetic acid], the EC50 (read-out: Activity) is below 100 nM.

As for `Cc1nc2cc(NC(=O)CCCCCC(C)(C)C)nn2c(-c2cc(F)c3c(c2C)CCCO3)c1[C@H](OC(C)(C)C)C(=O)O` [Example 20, (2S)-2-tert-butoxy-2-(2-(7,7-dimethyloctanamido)-7-(8-fluoro-5-methylchroman-6-yl)-5-methylpyrazolo[1,5-a]pyrimidin-6-yl)acetic acid], the EC50 (read-out: Activity) is below 100 nM.

Consider `Cc1nc2cc(NC(=O)CC3CCCC3)nn2c(-c2cc(F)c3c(c2C)CCCO3)c1[C@H](OC(C)(C)C)C(=O)O` [Example 21, (2S)-2-tert-butoxy-2-(2-(2-cyclopentylacetamido)-7-(8-fluoro-5-methylchroman-6-yl)-5-methylpyrazolo[1,5-a]pyrimidin-6-yl)acetic acid], for which the EC50 (read-out: Activity) is below 100 nM.

Consider `Cc1nc2cc(NC(=O)c3ccc4c(c3)OC(F)(F)O4)nn2c(-c2cc(F)c3c(c2C)CCCO3)c1[C@H](OC(C)(C)C)C(=O)O` [Example 22, (2S)-2-tert-butoxy-2-(2-(2,2-difluorobenzo[d][1,3]-dioxole-5-carboxamido)-7-(8-fluoro-5-methylchroman-6-yl)-5-methylpyrazolo[1,5-a]pyrimidin-6-yl)acetic acid], for which the EC50 (read-out: Activity) was 100 to 1000 nM.

For the molecule `COc1ccc(CCC(=O)Nc2cc3nc(C)c([C@H](OC(C)(C)C)C(=O)O)c(-c4cc(F)c5c(c4C)CCCO5)n3n2)cc1` [Example 23, (2S)-2-tert-butoxy-2-(7-(8-fluoro-5-methylchroman-6-yl)-2-(3-(4-methoxyphenyl)propanamido)-5-methylpyrazolo[1,5-a]pyrimidin-6-yl)acetic acid], the EC50 worked out at 170 nM. For the same molecule, the EC50 (read-out: Activity) fell in the range of 100 to 1000 nM.

Turning to `Cc1nc2cc(NC(=O)CC3CCCCC3)nn2c(-c2cc(F)c3c(c2C)CCCO3)c1[C@H](OC(C)(C)C)C(=O)O` [Example 25, (2S)-2-tert-butoxy-2-(2-(2-cyclohexylacetamido)-7-(8-fluoro-5-methylchroman-6-yl)-5-methylpyrazolo[1,5-a]pyrimidin-6-yl)acetic acid], under “read-out: Activity”, the EC50 was below 100 nM.

In the case of `Cc1nc2cc(NC(=O)Cc3ccc(Cl)c(Cl)c3)nn2c(-c2cc(F)c3c(c2C)CCCO3)c1[C@H](OC(C)(C)C)C(=O)O` [Example 26, (2S)-2-tert-butoxy-2-(2-(2-(3,4-dichlorophenyl)acetamido)-7-(8-fluoro-5-methylchroman-6-yl)-5-methylpyrazolo[1,5-a]pyrimidin-6-yl)acetic acid], the EC50 (read-out: Activity) was below 100 nM.

Values taken from patent publication US9006235B2, “Inhibitors of human immunodeficiency virus replication” (priority 2012, dated 2015).
